Data: US7838495B2, “Compositions and methods of use of EPB1, and ErbB3 binding protein” (University of Maryland, Baltimore, priority 2007, dated 2010)

Tests used:
Type in all cases: cell-based, human
LNCaP cells [1] = assay: Growth response of LNCaP vector controls and EBP1 transfectants to DHT and bicalutamide; parameters: Emax: dose or concentration left out as unconfirmed
Description: Cell Growth Assays: To measure growth in complete media, cells (2×10^4) were seeded in triplicate in individual wells of 12-well tissue culture plates in RPMI-1640 with 10% FBS and cultured for the indicated number of days. Cells were trypsinized, stained with Trypan Blue (0.4%), and counted in a hemacytometer. For soft agar growth assays, increasing concentrations of cells (as indicated) were plated in 35 mm Petri dishes in complete media and 0.3% Difco Bacto Agar over an 0.5% agar layer. Colonies were counted after 10 days of incubation. For studies assessing the effect of dihydrotestosterone (DHT) on cell growth, cells (2×10^4) were plated in 12-well plates in complete media. After a 24-hour attachment period, the medium was replaced with steroid-free medium [phenol red-free RPMI 1640 and 5% charcoal-stripped FBS (Sigma)] for 48 hours. The final concentration of testosterone in the steroid-reduced media was less than 5 pM. After 48 hours of steroid depletion, cells were re-fed with fresh steroid-reduced medium with or without the indicated concentrations of DHT and/or bicalutamide (10 μM), and total cell numbers were assessed 7 days later.

C81 cells [2] = assay: Response of C81 transfectants to DHT and bicalutamide; settings: steroid reduced medium
Description: FIG. 4A-C. […] Equal numbers (5×10^4) of vector or EBP1 stably transfected cells were plated at Day 0 in complete media and viable cell numbers determined at the indicated times. Each point represents mean±S.E. of 3 wells. Representative of 3 experiments (Right panel). Colony growth in soft agar. C81 cells stably transfected with either pcDNA or EBP1 were plated in soft agar at the cell densities indicated and colony numbers assessed at Day 10. Each point represents mean±S.E. of 3 dishes. Data is representative of 3 experiments. B. (Left Panel) Response of EBP1 and vector transfected C81 cells to dihydrotestosterone (DHT). EBP1 and vector control C81 transfected cells and early passage LNCaP cells were plated in complete media at 5×10^3 cells/well in 96 well plates for one day. […] Total cell numbers were determined seven days later by MTT assays. […] Total cell numbers were assessed 7 days later by MTT assay. […] Total cell numbers were determined by MTT assays 5 days later. […]
Western Blot Analysis. […] For soft agar growth assays, increasing concentrations of cells (as indicated) were plated in 35 mm Petri dishes in 0.3% agar in complete media and colonies were counted after 10 days of incubation (21). […] Relative cell growth was determined using a Promega Proliferation Reagent (Promega, Madison Wis.) as per manufacturer's instructions with absorbance being read at […] using a Dynex plate reader. […]

LNCaP cells [3] = assay: Response of A16 and C13 LNCaP cells to docetaxel (MTT)
Description: FIG. 7A-C. Suppression of EBP1 by shRNA promotes a hormone refractory phenotype A. Western blot analysis of Ebp1. Lysates of LNCaP cells stably transduced with a control lentivirus (A16) or an EBP1 targeted shRNA (13C) were collected and resolved by SDS-PAGE. Western blots were probed for endogenous EBP1 or ACTIN as indicated. B. Inhibition of EBP1 expression abrogates the ability of HRG to arrest growth (Left panel) Control and shRNA EBP1 targeted cells were plated in complete media at […] for one day. The next day, cells were switched to steroid reduced-media and HRG added at the indicated concentrations. Total cell numbers were determined seven days later by MTT assay. Each point represents mean±S.E. of 6 wells. Data is representative of three experiments. (Right Panel) AKT phosphorylation in EBP1 knock out cells Control (A16) or EBP 1 knock out cells (C13) were treated with HRG (20 ng/ml) for 15 mm and cell lysates assessed for the presence of phospho and total AKT as indicated. C. […] Sixteen hours later, luciferase activity was measured. […] Lysates of logarithmically growing A16 and C13 cells were resolved by SDS-PAGE and analyzed by Western blotting using antibodies to AGR2 and ACTIN as indicated. […] The viability of the cells was determined by MTT assays 5 days later. […]

C81 cells [4] = assay: Sensitivity of C81 transfectants to chemotherapeutic drugs (MTT); settings: for sensitivity to Docetaxel: androgen deprived conditions; for decrease of growth: 20 nM, steroid reduced media
Description: FIG. 4A-C. […] Equal numbers (5×10^4) of vector or EBP1 stably transfected cells were plated at Day 0 in complete media and viable cell numbers determined at the indicated times. Each point represents mean±S.E. of 3 wells. Representative of 3 experiments (Right panel). Colony growth in soft agar. C81 cells stably transfected with either pcDNA or EBP1 were plated in soft agar at the cell densities indicated and colony numbers assessed at Day 10. Each point represents mean±S.E. of 3 dishes. Data is representative of 3 experiments. B. (Left Panel) Response of EBP1 and vector transfected C81 cells to dihydrotestosterone (DHT). EBP1 and vector control C81 transfected cells and early passage LNCaP cells were plated in complete media at 5×10^3 cells/well in 96 well plates for one day. The next day, cells were switched to steroid reduced medium for two days as described in the Materials and Methods. DHT was then added at the indicated concentrations. Cells were refed media every 3 days. Total cell numbers were determined seven days later by MTT assays. Each point represents mean±S.E. of 6 wells. Data is representative of two experiments. (Right Panel) Effect of Bicalutamide on DHT stimulated growth. Cells were plated as described in the Materials and Methods. After 2 days in steroid reduced medium, cells were fed with fresh steroid reduced medium with or without 10 μM bicalutamide (Casodex) in the presence or absence of 10 nM DHT. Total cell numbers were assessed 7 days later by MTT assay. Cells were refed media every 3 days. The data shown are mean±S.E. of six wells. […] C. […] C81 vector control or EBP1 transfectants were plated in 96 well plates in complete media and allowed to attach overnight. The cells were then placed in steroid reduced media for two days and then refed with steroid reduced media in the presence of the indicated concentrations of Docetaxel (left panel) or Mitoxantrone (right panic). Total cell numbers were determined by MTT assays 5 days later. Each point represents mean±S.E. of 6 wells. Data is representative of two experiments.
Western Blot Analysis. Western blot analysis was performed as previously described (19). The Ebp1 antibody was from Upstate (Lake Placid, N.Y.), the polyclonal antibody to actin from Sigma, the AKT and phospho AKT antibodies from Cell Signaling (Beverly, Mass.) and the AGR2 antibody was previously described (20) Cell Growth Assays Cell growth measurement in complete media was performed as described using a hemocytometer (21). For soft agar growth assays, increasing concentrations of cells (as indicated) were plated in 35 mm Petri dishes in 0.3% agar in complete media and colonies were counted after 10 days of incubation (21). For studies assessing the effect of DHT, HRG or chemotherapeutic agents on cell growth, cells (5×10^3) were plated in 96 well plates in complete media. After a 24-hour attachment period, the medium was replaced with steroid free medium [phenol red free RPMI 1640 and 5% charcoal stripped fetal bovine serum (Sigma)]. After 48 hours of steroid depletion, cells were refed with fresh steroid reduced medium with or without the indicated concentrations of DHT, bicalutamide (Casodex) (10 μM), HRG or the chemotherapeutic drugs at the concentrations indicated. Relative cell growth was determined using a Promega Proliferation Reagent (Promega, Madison Wis.) as per manufacturer's instructions with absorbance being read at […] using a Dynex plate reader. […]

MCF-7 cells = assay: Growth of MCF-7 vector control and EBP1 transfectants in response to HRG or EGF
Description: FIG. 9A-D. Ectopic expression of EBP1 blocks HRG-induced proliferation. (A) MCF 7 cells were stably transfected with a control Flag vector (CMV) or a FLAG-EBP1 vector (EBP1). Cells lysates were analyzed by Western blotting for FLAG and actin levels as indicated (left panel) or EBP1 and actin (right panel). (B) MCF-7 vector control (Control) or EBP1 transfected cells (EBP1) were plated in 96-well plates in complete media overnight, and then switched to media with 2% FBS and the indicated concentrations of HRGb1 as described in Section 2. Growth was determined 4 days later using a Promega Proliferation Assay. Each point represents the mean±SD for six wells. Data shown are representative of three experiments. (C) AU565 vector control (Control) or EBP1 transfected cells (EBP1) were plated in 96-well plates in complete media overnight, and then switched to media with 2% FBS and the indicated concentrations of HRGβ1. Growth was determined 4 days later using a Promega Proliferation Assay. Each point represents the mean±SD for six wells and is representative of two experiments. […] Growth was determined 4 days later using a Promega Proliferation Assay. […]
2.5. […] Protein concentrations were measured using a detergent compatible kit (Bio-Rad). […] Images were quantified using IMAGE-J software (NIH). […]

C[C@]12CCC(=O)C[C@@H]1CC[C@@H]1[C@@H]2CC[C@]2(C)[C@@H](O)CC[C@@H]12 [DHT, dihydrotestosterone]
Emax (LNCaP cells [1]; Homo sapiens, LNCaP, read-out: maximal stimulation of growth by DHT): 250% | stimulation of growth by DHT (LNCaP cells [1]; LNCaP EBP1 transfectants, 10^-9 M DHT): 35% | growth response to androgen (DHT) (C81 cells [2]; EBP1 transfected C81 cells): responded to androgen in a similar manner as the original low passage LNCaP androgen sensitive cells | growth response to androgen (DHT) (C81 cells [2]; vector control C81 cells): unresponsive

CC(=O)O[C@@]12CO[C@@H]1C[C@H](O)[C@@]1(C)C(=O)[C@H](O)C3=C(C)[C@@H](OC(=O)[C@H](O)[C@@H](NC(=O)OC(C)(C)C)c4ccccc4)C[C@@](O)([C@@H](OC(=O)c4ccccc4)[C@H]21)C3(C)C [Docetaxel]
reduction in growth (LNCaP cells [3]; A16 control LNCaP cells, 5 nM): 65% | inhibition at 0.02 µM (LNCaP cells [3]; Homo sapiens, C13 EBP1 knock down LNCaP cells, 20 nM, read-out: maximum growth inhibition): 15% | sensitivity to Docetaxel (C81 cells [4]; C81 cells): relatively refractory | sensitivity to Docetaxel (C81 cells [4]; EBP1 transfected C81 cells, 5-20 nM): significantly more sensitive

O=C1c2c(O)ccc(O)c2C(=O)c2c(NCCNCCO)ccc(NCCNCCO)c21 [Mitoxantrone]
decrease of growth (C81 cells [4]; C81 EBP1 transfectants): approximately 80% | decrease of growth (C81 cells [4]; C81 vector controls): 40% | concentration at which sensitivity plateaued (C81 cells [4]; both vector control and EBP1 transfectants): 20 nM

EGF: growth factor from Sigma used to stimulate MCF-7 growth
growth response to EGF (MCF-7 cells; MCF-7 EBP1 transfected cells): growth stimulated by EGF to the same extent as control cells | growth response to EGF (MCF-7 cells; MCF-7 control cells): able to respond to EGF
